# Assay results as given in PubChem BioAssay AID2633 (Broad Institute, 2010).
# Activity calls are given as the source filed them. No rule for the calls is given here.
# System: DRD oncogenic fibroblast cytotoxicity, fluorescence viability
# Experiment: cytotoxicity toward DRD oncogenic fibroblasts, dose response, cell-based, fluorescence viability readout (AID 2633)
row,SMILES,EC50
1,CCOc1ccc(Nc2nc(N)nc(CCl)n2)cc1,575 nM
2,Cc1ccccc1Nc1nc(N)nc(CCl)n1,1980 nM
3,CN1CCN(C(=O)CCCN2C(=O)/C(=C/c3cccc(Br)c3)SC2=S)CC1,> 6670 nM (inactive)
4,COc1ccc(C(C(=O)NC2CCCCC2)N(C(=O)CCl)c2ccc(C)cc2)cc1 (stereo not drawn),737 nM
5,COC(=O)[C@@H]1Cc2c([nH]c3ccccc23)C(C)(C)N1C(=O)CCl,1010 nM
6,CCc1ccc(/C=C2\SC(=S)N(CCC(=O)NCCCN3CCOCC3)C2=O)cc1,4700 nM
7,Cc1cccnc1Nc1nc(-c2ccccn2)cs1,428 nM
8,Cc1onc(C(=O)N2CCN(C(c3ccccc3)c3ccccc3)CC2)c1[N+](=O)[O-],1300 nM
9,CCCCCCCN(C(=O)CCl)c1cccc(C)c1,1090 nM
10,CC[C@H]1CN2CCc3cc(OC)c(OC)cc3[C@@H]2C[C@@H]1C[C@H]1NCCc2cc(OC)c(OC)cc21,9.12 nM
11,Cc1cccc(Nc2nc(N)nc(CCl)n2)c1,2180 nM
12,Cc1ccc(N(C(=O)CCl)C(C(=O)NC2CCCCC2)c2cccnc2)cc1C (stereo not drawn),75.6 nM
13,Cc1ccc(C2CC(c3cccs3)=NN2C(=O)CCl)cc1 (stereo not drawn),1420 nM
14,COc1ccc(OC)c(Nc2nc(N)nc(CCl)n2)c1,1520 nM
15,COc1ccc(CN(CCC(c2ccccc2)c2ccc(OC(C)C)cc2)C(=O)CCl)cc1OC (stereo not drawn),1480 nM
16,CCOc1ccc(CC(=O)Nc2ccc(NC(=O)c3ccco3)cc2)cc1OCC,> 6670 nM (inactive)
17,CC(C)C(=O)Nc1ccc(C(=O)NCc2cccnc2)cc1,> 6670 nM (inactive)
18,C=C1C(=O)O[C@@H]2C[C@@H](C)[C@@H]3C=CC(=O)[C@@]3(C)[C@@H](OC(=O)CC(=O)O[C@H]3[C@@H]4C(=C)C(=O)O[C@@H]4C[C@@H](C)[C@@H]4C=CC(=O)[C@]43C)[C@H]12,32.4 nM
19,CC(C)c1onc(C(=O)N2CCN(C(c3ccccc3)c3ccccc3)CC2)c1[N+](=O)[O-],617 nM
20,CC[C@@]1(O)C(=O)OCc2c1cc1n(c2=O)Cc2cc3ccccc3nc2-1,454 nM

row,SMILES,EC50
1,O=C(NCc1cccnc1)c1ccc(NC(=O)c2ccc([N+](=O)[O-])cc2)cc1,> 6670 nM (inactive)
2,O=C1SC(Cc2ccccc2)C(=O)N1c1ccccc1 (stereo not drawn),> 6670 nM (inactive)
3,O=S(=O)(c1ccc2c(c1)C(=NO)c1cc(S(=O)(=O)N3CCCCC3)ccc1-2)N1CCCCC1,2120 nM
4,CCc1ccc(/C=C2/SC(=S)N(CCC(=O)NCCCN3CCOCC3)C2=O)cc1,5320 nM
5,Cc1ccc(Nc2nc(N)nc(CCl)n2)c(C)c1,499 nM
6,COc1ccc(-c2nnc(NC(=O)c3ccc(S(=O)(=O)N4CCc5ccccc5C4)cc3)o2)cc1,> 6670 nM (inactive)
7,COc1ccc(S(=O)(=O)N2CCOCC2)cc1NC(=O)CCNC(=O)c1ccc(Br)cc1,> 6670 nM (inactive)
8,CCN1/C(=C\C=C\C2=[N+](CC)c3ccccc3C2(C)C)C(C)(C)c2ccccc21,249 nM
9,C=CCOc1ccccc1CN(C(=O)CCl)c1ccc2c(c1)OCO2,2430 nM
10,COc1ccc(N(C(=O)CCl)C(C(=O)NCCc2ccccc2)c2cccs2)cc1Cl (stereo not drawn),25.3 nM
11,Cc1cccc(Nc2nc(N)nc(CCl)n2)c1C,568 nM
12,O=C(CCCCCN1C(=O)c2cccc3cccc(c23)C1=O)NCc1cccnc1,> 6670 nM (inactive)
13,C/C(=N\Nc1ncc(Cl)cc1Cl)c1ccccn1,19.6 nM
14,CC(Oc1ccc(Cl)cc1Cl)c1nc(-c2ccc(NC(=O)c3cccnc3)cc2)no1 (stereo not drawn),> 6670 nM (inactive)
15,COC(=O)C[C@](O)(CCCC(C)(C)O)C(=O)O[C@@H]1C(OC)=C[C@]23CCCN2CCc2cc4c(cc2[C@H]13)OCO4,4.64 nM
16,Oc1ccccc1N=Nc1nc(-c2ccccc2)c(-c2ccccc2)[nH]1,378 nM
17,CC[C@@]1(O)C(=O)OCc2c1cc1n(c2=O)Cc2cc3c(NC(=O)CN)cccc3nc2-1,4610 nM
18,Nc1nc(CCl)nc(Nc2cccc3ccccc23)n1,660 nM
19,Cc1cccc(OCC(=O)Nc2ccc(C(=O)NCc3cccnc3)cc2)c1,> 6670 nM (inactive)
20,Cc1ccc(C(=O)Sc2cccccc2=O)cc1,55.4 nM

row,SMILES,EC50
1,COc1ccc(N(C(=O)CCl)C(C(=O)NCCc2ccccc2)c2cccs2)cc1 (stereo not drawn),447 nM
2,O=C(CCl)N=c1sccn1Cc1ccccc1Cl,126 nM
3,CC[C@@]1(O)C(=O)OCc2c1cc1n(c2=O)Cc2cc3c(CN(C)C)c(O)ccc3nc2-1,820 nM
4,COc1ccc(/C=N/NC(=O)c2[nH]c3ccc(Br)cc3c2-c2ccccc2)cc1,134 nM
5,O=C(COc1ccc(Cl)cc1)Nc1ccc(C(=O)NCc2cccnc2)cc1,> 6670 nM (inactive)
6,CCc1ccc(/C=C2/SC(=S)N(CCC(=O)Nc3cccnc3)C2=O)cc1,> 6670 nM (inactive)
7,COc1ccc(C[C@H]2NC[C@H](O)[C@H]2OC(C)=O)cc1,44.7 nM
8,Nc1nc(CCl)nc(Nc2ccc3ccccc3c2)n1,182 nM
9,COc1cccc(N(C(=O)CCl)C(C(=O)NCCc2ccccc2)c2cccs2)c1 (stereo not drawn),280 nM
10,CC[C@@]1(O)C(=O)OCc2c1cc1n(c2=O)Cc2cc3c(N)cccc3nc2-1,129 nM
11,CC(=O)Nc1ccc(NC(=O)CN(c2cccc([N+](=O)[O-])c2)S(C)(=O)=O)cc1,> 6670 nM (inactive)
12,O=C(NCc1cccnc1)c1ccc(NC(=O)c2cccc([N+](=O)[O-])c2)cc1,> 6670 nM (inactive)
13,O=C(N/N=C/c1cccnc1)c1ccc(NC(=O)C(c2ccccc2)c2ccccc2)cc1,> 6670 nM (inactive)
14,O=C(Cc1ccc([N+](=O)[O-])cc1)N/N=C/c1ccc([N+](=O)[O-])o1,> 6670 nM (inactive)
15,CC1=CC(=O)C=C(C)C1=NOc1ccccc1[N+](=O)[O-],> 6670 nM (inactive)
16,COc1ccc(C(C(=O)NC2CCCCC2)N(C(=O)CCl)c2cccc(Cl)c2)cc1 (stereo not drawn),48.6 nM
17,COc1ccc(Cc2nc(-c3ccc(NC(=O)c4cccnc4)cc3)no2)cc1,> 6670 nM (inactive)
18,Cc1ccc(/C=C2\SC(=S)N(CCCC(=O)N3CCOCC3)C2=O)cc1,> 6670 nM (inactive)
